Results from patent US11007212B2, “Microbubble complexes and methods of use” (General Electric Company, priority 2011, dated 2021).
pKd: −log10 of the molar value. {CholTEG} = cholesteryl-TEG lipid

Columns and labels:
Optison = biological target: T1, Optison (Homo sapiens, UniProt P02768); test: Gel shift assay, binding of siRNA to Optison albumin solution
T1 construct: purchased GE Healthcare, Chalfont St. Giles, United Kingdom

denatured HSA = test: Gel shift assay, binding of siRNA to denatured HSA; parameters: species or system human; settings: same amount of denatured HSA, compared with native HSA and Optison
From the text: The reaction buffer was 1× PBS, pH 7.4.

[1] = system: U-87 human glioblastoma cells; test: Delivery of siRNA to U-87 tumor cells (cell cy3-fluorescence); format: cell-based; settings: U-87 cells, 40 pmoles siRNA, 24 hours after sonication, MI>1.3
Description: (§1) MATBIII rat mammary carcinoma and U-87 human glioblastoma cells were cultured in McCoy's 5A Medium (modified) (1×) (Invitrogen, Carlsbad, Calif., USA) and Eagle's Minimum Essential Medium (EMEM) (ATCC, Manassas, Va.) respectively. Both the media solutions were supplemented with 10% heat deactivated fetal bovine serum (FBS) (Fisher Scientific, Springfield, N.J.) and 1% penicillin-streptomycin (Sigma Aldrich, St Louis, Mo.). The cells were maintained at 37° C. in a humidified atmosphere with 5% CO2.
(§2) MATB-III and U-87 cells were grown in 10 mL capacity Opticell units (Nalge Nunc International, Rochester, N.Y.) to 90% confluence. The media in OptiCell was replaced with 10 mL fresh media containing 40 pmoles of either cy3-siRNA or cholesterol-siRNA. […] After incubation, the cells were imaged using a fluorescence microscope (Zeiss Axio Imager.Z1, Carl Zeiss). […] In the region of interest (ROI) in the fluorescent images, cell fluorescence was measured and the mean values of cell fluorescence were calculated. ImageJ was used to process the images and calculate fluorescence intensities.
(§3) The data are reported as mean+1.0 standard error (SE) for N=4. The statistical significance of the differences between the groups was evaluated using two-sample t-test and the statistical analyses were carried out using Minitab® 12 (Minitab Inc, State College, Pa. USA).

[2] = system: MATBIII rat mammary carcinoma cells; test: Delivery of siRNA to MATBIII cells, Optison/ultrasound versus RNAifect; format: cell-based; settings: 24 hours
Description: as §1, §2, §3

native HSA = native HSA (Homo sapiens, UniProt P02768)
Sequence of native HSA (P02768 25-609): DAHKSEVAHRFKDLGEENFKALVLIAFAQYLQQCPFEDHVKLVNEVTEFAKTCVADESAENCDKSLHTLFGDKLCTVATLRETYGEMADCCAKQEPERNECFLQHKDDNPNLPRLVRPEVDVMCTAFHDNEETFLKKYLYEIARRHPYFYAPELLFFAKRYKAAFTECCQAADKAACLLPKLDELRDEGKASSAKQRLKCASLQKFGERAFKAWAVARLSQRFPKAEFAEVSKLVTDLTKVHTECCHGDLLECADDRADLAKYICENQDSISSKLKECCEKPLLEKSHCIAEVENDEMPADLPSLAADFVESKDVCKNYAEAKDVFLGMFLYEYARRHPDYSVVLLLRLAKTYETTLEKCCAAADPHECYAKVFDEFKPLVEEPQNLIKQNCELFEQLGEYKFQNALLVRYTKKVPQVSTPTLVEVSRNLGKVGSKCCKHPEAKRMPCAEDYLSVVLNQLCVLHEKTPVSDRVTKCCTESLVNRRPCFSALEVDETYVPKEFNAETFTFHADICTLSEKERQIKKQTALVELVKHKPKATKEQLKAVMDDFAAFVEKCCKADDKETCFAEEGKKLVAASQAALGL
Description: Optison™ (GE Healthcare, Chalfont St. Giles, United Kingdom, 10 mg/ml albumin) was centrifuged; the top layer was discarded and the excess albumin solution in the bottom was used for the binding studies. Lyophilized human serum albumin (HSA) powder (Sigma Aldrich, St. Louis Mo.) was dissolved in 1× phosphate buffered saline (PBS) to make a stock solution of 10 mg/mL. Both Optison and native albumin solution dilutions were prepared with 1× PBS. Denatured HSA solution was prepared by heating native ESA solution to 80° C. for 20 minutes.
The stock solutions of cy3-siRNA and cy3-siRNA-cholesterol, 20 μM were prepared in RNAse free water and stored at −20° C. […]
All the reactions were loaded onto precast 6% nondenaturing polyacrylamide gels (Invitrogen, Carlsbad, Calif., USA). […] The gels containing either DNA, protein or both were imaged for cy3 fluorescence using a typhoon scanner (Typhoon™9410, GE Healthcare).
The fluorescence of Cy3 attached to siRNA can be visualized as distinct siRNA bands on the gel.
The fluorescence intensity of siRNA in each lane was estimated manually by drawing a box around the bands. […] Fluorescence intensities of bound siRNA over a wide range of albumin concentrations were calculated. Relative fluorescence, R was calculated as: R=(Fbound-Ffree)/Ffree (1) […]

T1 sequence (P02768 25-609): as above

Substance: cholesterol-siRNA: siRNA for VEGF silencing, 5'-Cy3 labelled, cholesteryl TEG lipid at 3' of sense strand (SEQ ID NO: 1 and 2) (sense GCAUUUGUUUGUCCAAGAUUU; antisense AAAUCUUGGACAAACAAAUGC; sense: 3' {CholTEG}, sugars by position and backbone not given here; antisense: chemistry not given here; 5'-Cy3 label, further chemistry not fully specified)
- Binding to Optison solution in gel shift assay (Optison; 0 to 50 pmoles albumin): bound
- pKd (Optison; binding to Optison, gel shift, non-linear fit, read-out: Dissociation constant, kd): 5.15
- Amount bound to Optison solution compared with native HSA (Optison; low albumin concentration, 0 to 15 μM): higher
- Binding to denatured HSA in gel shift assay (denatured HSA): significantly decreased
- Increase in average cell fluorescence, Optison/ultrasound treated versus untreated cells [1]: 53%
- Average cell fluorescence, Optison/ultrasound delivery versus RNAifect [2]: no significant difference
- pKd (native HSA): 5.19
- Binding to native HSA in gel shift assay (native HSA; 0 to 50 pmoles albumin): bound
